Values of other authors in patent US20100093758A1, “PYRIDINE SULFONAMIDE MODULATORS OF ENDOTHELIN-A RECEPTOR” (AUSPEX PHARMACEUTICALS, INC., priority 2008, published 2010).

Legend:
[1] = not given; remark: listed apart in the source

COc1ccccc1Oc1c(NS(=O)(=O)c2ccc(C)cn2)nc(-c2ccncc2)nc1OC [Avosentan, 5-Methyl-pyridine-2-sulfonic acid [6-methoxy-5-(2-methoxy-phenoxy)-2-pyridin-4-yl-pyrimidin-4-yl]-amide]
fluid retention (at high concentrations): higher-than-expected rate of fluid retention | adverse events (typical for vasodilating agents): headache, nausea and vomiting, dizziness, and postural hypotension | dose dependence of Cmax and AUC ([1]; doses up to 100 mg): increase linearly with doses up to 100 mg | time at which maximum plasma levels are reached ([1]; in vivo): ≤ 4.5 h | urinary excretion ([1]; in vivo): below 0.1 % of any dose | food effect on exposure and Cmax ([1]; with food): does not affect overall exposure but increases Cmax
